Activity calls are given as the source filed them. No cut-off for these calls is given here.
Key:
[1] = Chemical stability of compound at pH 7.4 in PBS buffer at 1 mg incubated for 48 hrs by HPLC analysis; format: physicochemical; details: pH 7.4, 48 h
[2] = Toxicity in nude mouse assessed as effect on platelet distribution width at 40 mg/kg, iv administered qd for 3 days (reference value: 20.2); format: organism-based; details: in vivo, 72 h, time 3 day
[3] = Toxicity in nude mouse assessed as effect on monocytes level at 40 mg/kg, iv administered qd for 3 days (reference value: 37.10 %); format: organism-based; details: in vivo, 72 h, time 3 day
MDA-MB-231 [4] = assay: Antitumour activity against human MDA-MB-231 cells xenografted in nude mouse assessed as tumor growth inhibition at 40 mg/kg, iv administered every 2 days for 14 days; format: functional; details: MDA-MB-231, 336 h, time 14 day, read-out: TGI
[5] = Toxicity in nude mouse xenografted with human MDA-MB-231 cells assessed as pathological changes in liver at 20 to 40 mg/kg, iv administered every 2 days for 14 days by H and E staining based assay; format: organism-based; details: in vivo, 336 h, dose 20-40 mg/kg, time 14 day
[6] = Cardiotoxicity in nude mouse assessed as prolonged QT intervals at 20 to 40 mg/kg, iv administered once daily for 3 days by ECG analysis; format: toxicity, organism-based; details: in vivo, 72 h, dose 20-40 mg/kg, time 3 day
[7] = Toxicity in nude mouse assessed as effect on platelet count at 40 mg/kg, iv administered qd for 3 days (reference value: 21 10^9/L); format: organism-based; details: in vivo, 72 h, time 3 day
[8] = Metabolic stability in rat liver microsomes assessed as intrinsic clearance in liver at 10 mM measured up to 60 mins in presence of NADPH by LC-MS/MS analysis; format: ADME, Microsome; details: read-out: CLH
MDA-MB-231 [9] = assay: Antitumour activity against human MDA-MB-231 cells xenografted in nude mouse assessed as reduction in tumor volume at 40 mg/kg, iv administered every 2 days for 14 days; format: functional, organism-based; details: time 14.0 day
[10] = Aqueous solubility of compound in PBS at pH 7.4 at 1 mg incubated for 10 mins by HPLC analysis; format: physicochemical
MDA-MB-231 [11] = assay: Antitumour activity against human MDA-MB-231 cells xenografted in nude mouse assessed as tumor growth inhibition at 20 mg/kg,iv administered every 2 days for 14 days; format: functional; details: MDA-MB-231, 336 h, time 14 day, read-out: TGI
[12] = Toxicity in nude mouse assessed as effect on basophil level at 40 mg/kg, iv administered qd for 3 days (reference value: 11.70 %); format: organism-based; details: in vivo, 72 h, time 3 day
HeLa = assay: Antiproliferative activity against human HeLa cells assessed as inhibition of cell growth incubated for 48 hrs in absence of beta-glucuronidase by MTT assay; format: functional, cell-based

With `COc1ccc([C@H]2[C@H](CO)C(=O)N2c2cc(OC)c(OC)c(OC)c2)cc1OCc1ccc(O[C@@H]2O[C@H](C(=O)O)[C@@H](O)[C@H](O)[C@H]2O)cc1` the Stability [1] was “Stable”, the Activity [2] was 17 and the Activity [3] was 21.9%. The inhibition in vivo at 40 mg/kg (MDA-MB-231 [4]) was 63%, the Activity [5] was “Non-Toxic” and the Activity [6] was “Non-Toxic”. For the same compound, the Activity [7] was 43 10^9/L, the CLint scaled [8] was < 38 mL/min/kg and the Activity (MDA-MB-231 [9]) was “Active”. The solubility at 10 min [10] was > 40 mg/mL, the inhibition in vivo at 20 mg/kg (MDA-MB-231 [11]) was 50% and the Activity [12] was 6.8%. The IC50 (HeLa) was > 50 µM.
